Values of other authors, collected in patent publication US20140044784A1, “COMBINED FORMULATION WITH IMPROVED STABILITY” (BORYUNG PHARMACEUTICAL CO., LTD, priority 2011, published 2014).

Conditions: daily administration of a low dose (about 80 mg)

In the case of CC(=O)Oc1ccccc1C(=O)O [aspirin, acetylsalicylic acid], the “Reduction of heart attack, stroke, and cardiovascular mortalities” value is listed as “at least 25%”.
